These results are taken from US20240018483A1, “A DEVICE AND METHOD FOR VASCULARISING A CELL AGGREGATE” (AGENCY FOR SCIENCE, TECHNOLOGY AND RESEARCH, priority 2020, published 2024).

The experiment relates to Hep3b monoculture and triculture spheroids. As to the kind of experiment: Sorafenib treatment of tumour spheroids in devices with and without vasculature (GFP signal of live cells). The note with it: 10 μM Sorafenib for 7 days from day 5, vascularised vs non-vascularised, FIG. 9B. In kind it is cell-based. As to the method:
Next, the effect of Sorafenib treatment on the tumour spheroids and the vasculature was investigated. In this example, Hep3b monoculture and triculture spheroids were seeded in the devices with and without vasculature. At day 5, 10 μM of Sorafenib was used to treat the tumours for 7 days. GFP signal (representing the live cells) was quantified along the time.
In FIG. 9A, representative images from all the conditions are shown at Day 0 (starting of the drug treatment) and Day 5 post-treatment. FIG. 9B is a graph showing the GFP signal over time represented from 3 independent replicates.

Structures are written as SMILES.

For `CNC(=O)c1cc(Oc2ccc(NC(=O)Nc3ccc(Cl)c(C(F)(F)F)c3)cc2)ccn1` [Sorafenib], the “viability of spheroids (GFP signal representing the live cells)” value was “viability of the vascularised spheroids is lower compared to the non-vascularised spheroids”.
